Laboratory results: PubChem BioAssay (NCI)
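The compound was tested at five concentrations on cells cultured in 96-well plates, with a 48-hour exposure period. Abbreviation: GI50, concentration required for 50% inhibition of growth. At the TGI there is no net growth.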

Columns and labels:
Experiment in all cases: NCI tumour cell line growth inhibition, 48 h
SNB-75 CNS = tested on: SNB-75 CNS
UACC-257 melanoma = tested on: UACC-257 melanoma
MDA-MB-435 = tested on: MDA-MB-435
HCT-15 colon = tested on: HCT-15 colon
COLO 205 colon = tested on: COLO 205 colon
OVCAR-4 ovarian = tested on: OVCAR-4 ovarian
DU-145 prostate = tested on: DU-145 prostate
SW-620 colon = tested on: SW-620 colon
UO-31 renal = tested on: UO-31 renal
NCI-H522 lung = tested on: NCI-H522 lung
OVCAR-5 ovarian = tested on: OVCAR-5 ovarian
SR leukemia = tested on: SR leukemia
T-47D breast = tested on: T-47D breast
SF-295 CNS = tested on: SF-295 CNS
SF-268 CNS = tested on: SF-268 CNS
HOP-92 NSCLC = tested on: HOP-92 NSCLC
TK-10 renal = tested on: TK-10 renal
SNB-19 CNS = tested on: SNB-19 CNS
IGROV1 ovarian = tested on: IGROV1 ovarian
SK-MEL-5 melanoma = tested on: SK-MEL-5 melanoma
HT29 colon = tested on: HT29 colon
K-562 leukemia = tested on: K-562 leukemia
SF-539 CNS = tested on: SF-539 CNS
RXF 393 renal = tested on: RXF 393 renal
CAKI-1 renal = tested on: CAKI-1 renal
RPMI-8226 leukemia = tested on: RPMI-8226 leukemia
NCI/ADR-RES ovarian = tested on: NCI/ADR-RES ovarian
OVCAR-3 ovarian = tested on: OVCAR-3 ovarian
SN12C renal = tested on: SN12C renal
HCT-116 colon = tested on: HCT-116 colon
SK-MEL-28 melanoma = tested on: SK-MEL-28 melanoma
OVCAR-8 ovarian = tested on: OVCAR-8 ovarian
HL-60(TB) leukemia = tested on: HL-60(TB) leukemia
U251 CNS = tested on: U251 CNS
786-0 renal = tested on: 786-0 renal
HOP-62 NSCLC = tested on: HOP-62 NSCLC
MALME-3M melanoma = tested on: MALME-3M melanoma
HCC-2998 colon = tested on: HCC-2998 colon
SK-MEL-2 melanoma = tested on: SK-MEL-2 melanoma
KM12 colon = tested on: KM12 colon
A498 renal = tested on: A498 renal
MCF7 breast = tested on: MCF7 breast
MOLT-4 leukemia = tested on: MOLT-4 leukemia
UACC-62 melanoma = tested on: UACC-62 melanoma
SK-OV-3 ovarian = tested on: SK-OV-3 ovarian
HS 578T breast = tested on: HS 578T breast
PC-3 prostate = tested on: PC-3 prostate
A549 NSCLC = tested on: A549 NSCLC
ACHN renal = tested on: ACHN renal
NCI-H226 lung = tested on: NCI-H226 lung
EKVX NSCLC = tested on: EKVX NSCLC
CCRF-CEM leukemia = tested on: CCRF-CEM leukemia
LOX IMVI melanoma = tested on: LOX IMVI melanoma
NCI-H460 lung = tested on: NCI-H460 lung
MDA-MB-468 breast = tested on: MDA-MB-468 breast
MDA-MB-231 breast = tested on: MDA-MB-231 breast
BT-549 breast = tested on: BT-549 breast
NCI-H23 lung = tested on: NCI-H23 lung
M14 melanoma = tested on: M14 melanoma

Cc1ccc(-c2nc(C#N)c(S(=O)(=O)N3CCN(S(=O)(=O)c4ccccc4)CC3)o2)cc1
GI50 (SNB-75 CNS): > 100 µM | TGI (SNB-75 CNS): > 100 µM | GI50 (UACC-257 melanoma): > 100 µM | TGI (UACC-257 melanoma): > 100 µM | GI50 (MDA-MB-435): > 100 µM | TGI (MDA-MB-435): > 100 µM | GI50 (HCT-15 colon): > 100 µM | TGI (HCT-15 colon): > 100 µM | GI50 (COLO 205 colon): > 100 µM | TGI (COLO 205 colon): > 100 µM | GI50 (OVCAR-4 ovarian): > 100 µM | TGI (OVCAR-4 ovarian): > 100 µM | GI50 (DU-145 prostate): > 100 µM | TGI (DU-145 prostate): > 100 µM | GI50 (SW-620 colon): > 100 µM | TGI (SW-620 colon): > 100 µM | GI50 (UO-31 renal): > 100 µM | TGI (UO-31 renal): > 100 µM | GI50 (NCI-H522 lung): > 100 µM | TGI (NCI-H522 lung): > 100 µM | GI50 (OVCAR-5 ovarian): > 100 µM | TGI (OVCAR-5 ovarian): > 100 µM | GI50 (SR leukemia): > 100 µM | TGI (SR leukemia): > 100 µM | GI50 (T-47D breast): > 100 µM | TGI (T-47D breast): > 100 µM | GI50 (SF-295 CNS): > 100 µM | TGI (SF-295 CNS): > 100 µM | GI50 (SF-268 CNS): > 100 µM | TGI (SF-268 CNS): > 100 µM | GI50 (HOP-92 NSCLC): > 100 µM | TGI (HOP-92 NSCLC): > 100 µM | GI50 (TK-10 renal): > 100 µM | TGI (TK-10 renal): > 100 µM | GI50 (SNB-19 CNS): > 100 µM | TGI (SNB-19 CNS): > 100 µM | GI50 (IGROV1 ovarian): > 100 µM | TGI (IGROV1 ovarian): > 100 µM | GI50 (SK-MEL-5 melanoma): > 100 µM | TGI (SK-MEL-5 melanoma): > 100 µM | GI50 (HT29 colon): > 100 µM | TGI (HT29 colon): > 100 µM | GI50 (K-562 leukemia): > 100 µM | TGI (K-562 leukemia): > 100 µM | GI50 (SF-539 CNS): > 100 µM | TGI (SF-539 CNS): > 100 µM | GI50 (RXF 393 renal): > 100 µM | TGI (RXF 393 renal): > 100 µM | GI50 (CAKI-1 renal): > 100 µM | TGI (CAKI-1 renal): > 100 µM | GI50 (RPMI-8226 leukemia): > 100 µM | TGI (RPMI-8226 leukemia): > 100 µM | GI50 (NCI/ADR-RES ovarian): > 100 µM | TGI (NCI/ADR-RES ovarian): > 100 µM | GI50 (OVCAR-3 ovarian): > 100 µM | TGI (OVCAR-3 ovarian): > 100 µM | GI50 (SN12C renal): > 100 µM | TGI (SN12C renal): > 100 µM | GI50 (HCT-116 colon): > 100 µM | TGI (HCT-116 colon): > 100 µM | GI50 (SK-MEL-28 melanoma): > 100 µM | TGI (SK-MEL-28 melanoma): > 100 µM | GI50 (OVCAR-8 ovarian): > 100 µM | TGI (OVCAR-8 ovarian): > 100 µM | GI50 (HL-60(TB) leukemia): > 100 µM | TGI (HL-60(TB) leukemia): > 100 µM | GI50 (U251 CNS): > 100 µM | TGI (U251 CNS): > 100 µM | GI50 (786-0 renal): > 100 µM | TGI (786-0 renal): > 100 µM | GI50 (HOP-62 NSCLC): > 100 µM | TGI (HOP-62 NSCLC): > 100 µM | GI50 (MALME-3M melanoma): > 100 µM | TGI (MALME-3M melanoma): > 100 µM | GI50 (HCC-2998 colon): > 100 µM | TGI (HCC-2998 colon): > 100 µM | GI50 (SK-MEL-2 melanoma): > 100 µM | TGI (SK-MEL-2 melanoma): > 100 µM | GI50 (KM12 colon): > 100 µM | TGI (KM12 colon): > 100 µM | GI50 (A498 renal): > 100 µM | TGI (A498 renal): > 100 µM | GI50 (MCF7 breast): > 100 µM | TGI (MCF7 breast): > 100 µM | GI50 (MOLT-4 leukemia): > 100 µM | TGI (MOLT-4 leukemia): > 100 µM | GI50 (UACC-62 melanoma): > 100 µM | TGI (UACC-62 melanoma): > 100 µM | GI50 (SK-OV-3 ovarian): > 100 µM | TGI (SK-OV-3 ovarian): > 100 µM | GI50 (HS 578T breast): > 100 µM | TGI (HS 578T breast): > 100 µM | GI50 (PC-3 prostate): > 100 µM | TGI (PC-3 prostate): > 100 µM | GI50 (A549 NSCLC): > 100 µM | TGI (A549 NSCLC): > 100 µM | GI50 (ACHN renal): > 100 µM | TGI (ACHN renal): > 100 µM | GI50 (NCI-H226 lung): > 100 µM | TGI (NCI-H226 lung): > 100 µM | GI50 (EKVX NSCLC): > 100 µM | TGI (EKVX NSCLC): > 100 µM | GI50 (CCRF-CEM leukemia): > 100 µM | TGI (CCRF-CEM leukemia): > 100 µM | GI50 (LOX IMVI melanoma): > 100 µM | TGI (LOX IMVI melanoma): > 100 µM | GI50 (NCI-H460 lung): > 100 µM | TGI (NCI-H460 lung): > 100 µM | GI50 (MDA-MB-468 breast): > 100 µM | TGI (MDA-MB-468 breast): > 100 µM | GI50 (MDA-MB-231 breast): > 100 µM | TGI (MDA-MB-231 breast): > 100 µM | GI50 (BT-549 breast): > 100 µM | TGI (BT-549 breast): > 100 µM | GI50 (NCI-H23 lung): > 100 µM | TGI (NCI-H23 lung): > 100 µM | GI50 (M14 melanoma): > 100 µM | TGI (M14 melanoma): > 100 µM
